Converted amounts (≈) assume the structure as drawn. “Also recorded” adds a separate entry of the source. Where two headings read alike, the source gives them in different places.
Assays:
[1] = tested on: TR146 buccal cell line; assay: Pre-formulation permeability of Piroxicam & permeation agent binary mixtures, TR146 cells on Transwell inserts; conditions: for % Cumulative Permeability (n = 3) 1 min / % Cumulative Permeability (n = 3) 2 min / % Cumulative Permeability (n = 3) 5 min / % Cumulative Permeability (n = 3) 15 min / % Cumulative Permeability (n = 3) 20 min / % Cumulative Permeability (n = 3) 30 min: Piroxicam 0.35 mg in donor
[2] = Theoretical percent ionized and un-ionized API at sample pH (Henderson-Hasselbach equation); type: physicochemical; conditions: for Calculated % ionized / Calculated % unionized: Piroxicam at sample pH
[3] = Measured pH of API/permeation agent mixtures and of dispersed ODTs; type: physicochemical
[4] = tested on: TR146 buccal cell line; assay: Pre-formulation permeability of Carvedilol/permeation agent binary mixes, TR146 cells on Transwell inserts
[5] = tested on: TR146 buccal cell line; assay: Permeability of reconstituted Piroxicam freeze-dried ODT, TR146 cells on Transwell inserts; type: in vitro ADME
[6] = tested on: TR146 buccal cell line; assay: Permeability of Atenolol/permeation agent binary mixes (Table 11), TR146 cells on Transwell inserts; conditions: surfactants 1:1 molar ratio, PF127 and bile salt 2×CMC, citric acid 0.37-1 mg/ml
[7] = tested on: TR146 buccal cell line; conditions: human, 1.74 mg/ml, pH 7
[8] = cited from earlier work; for HLB value: hydrophilic-lipophilic balance of surfactant
[9] = tested on: TR146 buccal cell line; assay: Permeability of Famotidine/permeation agent binary mixes, TR146 cells on Transwell inserts
[10] = Physicochemical properties of model APIs and permeation agents (solubility, log P, pKa, HLB)
[11] = Piroxicam 0.7 mg/ml binary mixtures in distilled water, ^a after adjustment with 0.1M HCl
[12] = agent at 1:1 molar ratio to Piroxicam, CA after 20 and 30 minutes
[13] = agent at 1:1 molar ratio to Piroxicam, at 30 minutes

Compound: CN1C(C(=O)Nc2ccccn2)=C(O)c2ccccc2S1(=O)=O [Sample 3PXM, Piroxicam]
- % Cumulative Permeability (n = 3) 1 min [1]: 0.13%
- % Cumulative Permeability (n = 3) 2 min [1]: 0.41%
- % Cumulative Permeability (n = 3) 5 min [1]: 1.60%
- % Cumulative Permeability (n = 3) 15 min [1]: 5.88%
- % Cumulative Permeability (n = 3) 20 min [1]: 7.91%
- % Cumulative Permeability (n = 3) 30 min [1]: 11.24%
- Calculated % ionized [2]: 97.20%
- Calculated % unionized [2]: 2.80%
- pH [3, 11]: 6.64

Compound: CCCCCCCCCC(=O)O [capric acid, Capric acid]
- effect on Piroxicam permeability vs control [1, 12]: significantly reduced

Compound: C[C@H](CCC(=O)[O-])[C@H]1CC[C@H]2[C@@H]3[C@H](O)C[C@@H]4C[C@H](O)CC[C@]4(C)[C@H]3C[C@H](O)[C@]12C.O.[Na+] [sodium cholate hydrate, Sodium Cholate hydrate]
- percentage cumulative permeability of Piroxicam ([1]; agent at 1×CMC, at 30 minutes): 39.52%
- percentage cumulative permeability of Piroxicam ([1]; agent at 2×CMC, at 30 minutes): 14.44%
- effect on Piroxicam permeability vs control ([1]; bile salt at 0.5 CMC): slight, statistically non-significant increase
- fold increase in Piroxicam permeability vs control ([1]; bile salt at 1 CMC, at 30 minutes): 4 fold
- effect on Piroxicam permeability vs control ([1]; bile salt at 2 CMC, pH-adjusted using citric acid): slight and statistically non-significant
- fold increase in Piroxicam percentage cumulative permeability ([1]; bile salt at 2 CMC, at the first minute): 1.5 fold
- fold increase in Carvedilol percentage cumulative permeability vs control ([4]; at/after 30 minutes): ~2 fold
- effect on permeability of Piroxicam in ODT ([5]; […] w/w, 0.5×CMC in aqueous dispersion): only slightly increased
- effect on Atenolol permeability vs control [6]: no statistical difference

Compound: COc1ccccc1OCCNCC(O)COc1cccc2[nH]c3ccccc3c12 (stereo not shown) [Sample 1CAV, Carvedilol]
- % Cumulative Permeability (n = 3) 1 min ([7]; 1 min): 0.02%
- % Cumulative Permeability (n = 3) 2 min ([7]; 2 min): 0.03%
- % Cumulative Permeability (n = 3) 5 min ([7]; 5 min): 0.03%
- % Cumulative Permeability (n = 3) 15 min ([7]; 15 min): 0.10%
- % Cumulative Permeability (n = 3) 20 min ([7]; 20 min): 0.13%
- % Cumulative Permeability (n = 3) 30 min ([7]; 30 min): 0.18%
- Calculated % ionised ([2]; Carvedilol at sample pH): 86.32%
- Calculated % unionised ([2]; Carvedilol at sample pH): 13.68%
- pH ([3]; Carvedilol 1.74 mg/ml binary mixes in water, ^a after 0.1M NaOH, ^b after 0.1M HCL): 7

Compound: COc1ccccc1OCCNCC(O)COc1cccc2[nH]c3ccccc3c12 (stereo not shown) [Carvedilol]
- water solubility [8]: 4.44 µg/mL (≈ 10.9 µM)

Compound: Sorbitan monooleate [Span 80]
- effect on Piroxicam permeability vs control [1, 12]: reduce the Piroxicam permeability significantly
- fold increase in Famotidine permeability vs control ([9]; 1:1 molar ratio, time not stated): 2 fold

Compound: CCCCCCCCCCCCO[C@@H]1O[C@H](CO)[C@@H](O[C@H]2O[C@H](CO)[C@@H](O)[C@H](O)[C@H]2O)[C@H](O)[C@H]1O [DDM, Dodecyl-B-D-Maltoside]
- effect on Piroxicam permeability vs control [1, 12]: increased
- fold increase in Piroxicam percentage cumulative permeability vs control [1, 13]: 2.6 fold
- percentage cumulative permeability of Piroxicam [1, 13]: 25.60%
- effect on Carvedilol permeability vs control ([4]; PF127 at 2×CMC, other surfactants at 1:1 molar ratio): No significant effect
- difference in Famotidine permeability vs control ([9]; 1:1 molar ratio, at the 20 and 30 minute marks): no significant difference
- fold increase in Famotidine permeability vs control ([9]; 1:1 molar ratio, first 5 through 15 minutes): 3 fold
- HLB value [8]: 13.5
- effect on Atenolol permeability vs control [6]: no statistically significant difference

Compound: CC(C)NCC(O)COc1ccc(CC(N)=O)cc1 (stereo not shown) [Sample 1ATL, Atenolol]
- % ionised ([2]; Atenolol at sample pH): 9.48%
- % unionised ([2]; Atenolol at sample pH): 90.52%
- pH ([3]; Atenolol 1.74 mg/ml binary mixes in distilled water, ^a after 0.1M NaOH): 10.58
- pH ([3]; measured pH of Atenolol (1.74 mg/ml)/permeation agent mixture in distilled water): 10.58

Compound: CN1C(C(=O)Nc2ccccn2)=C(O)c2ccccc2S1(=O)=O [Piroxicam]
- pKa [8]: 5.1
- water solubility [8]: 143 µg/mL (≈ 432 µM)

Compound: NCCCC[C@H](N)C(=O)O [lysine, Lysine]
- effect on Piroxicam permeability ([1]; 1:3 and 1:6 molar ratios Piroxicam to counterion): no significant enhancement
- pKa [10]: ≥ 5

Compound: POE-(4)-sorbitan monolaurate [Tween 21]
- effect on Piroxicam permeability vs control [1, 12]: increased
- fold increase in Piroxicam percentage cumulative permeability vs control [1, 13]: 2.1 fold
- percentage cumulative permeability of Piroxicam [1, 13]: 20.82%
- effect on Famotidine permeability vs control [9]: Neither PF127 nor Tween 21 showed an enhancement; also recorded: no increase in Famotidine permeability was observed

Compound: CCCCCCCCCCCCOS(=O)(=O)[O-].[Na+] [SLS, Sodium Lauryl Sulfate]
- effect on Piroxicam permeability vs control [1, 12]: increased
- effect on permeability of Piroxicam ODT vs control ([5]; 0.69% w/w and 3.49% w/w (PXM:SLS 5:1 and 1:1)): increased
- permeability of 3.49% w/w sample compared to 0.69% w/w sample ([5]; Piroxicam ODT): marginally higher but statistically significant increase
- HLB value [8]: 40
- effect on Atenolol permeability vs control [6]: non-statistically significant increase

Compound: NC(N)=Nc1nc(CSCCC(N)=NS(N)(=O)=O)cs1 [Sample 1FAM, Famotidine]
- Calculated % ionised ([2]; Famotidine at sample pH): 1.53%
- Calculated % unionised ([2]; Famotidine at sample pH): 98.47%
- % Cumulative Permeability (n = 3) 1 min ([9]; Famotidine […], 0.5 ml in donor, 1 min): 0.32%
- % Cumulative Permeability (n = 3) 2 min ([9]; Famotidine […], 0.5 ml in donor, 2 min): 0.84%
- % Cumulative Permeability (n = 3) 5 min ([9]; Famotidine […], 0.5 ml in donor, 5 min): 2.09%
- % Cumulative Permeability (n = 3) 15 min ([9]; Famotidine […], 0.5 ml in donor, 15 min): 7.81%
- % Cumulative Permeability (n = 3) 20 min ([9]; Famotidine […], 0.5 ml in donor, 20 min): 11.76%
- % Cumulative Permeability (n = 3) 30 min ([9]; Famotidine […], 0.5 ml in donor, 30 min): 19.98%

Compound: CN1C(C(=O)Nc2ccccn2)=C(O)c2ccccc2S1(=O)=O [Sample 1PXM, Piroxicam]
- % Cumulative Permeability (n = 3) 1 min [1]: 0.08%
- % Cumulative Permeability (n = 3) 2 min [1]: 0.24%
- % Cumulative Permeability (n = 3) 5 min [1]: 0.96%
- % Cumulative Permeability (n = 3) 15 min [1]: 3.82%
- % Cumulative Permeability (n = 3) 20 min [1]: 5.89%
- % Cumulative Permeability (n = 3) 30 min [1]: 9.96%
- Calculated % ionized [2]: 61.31%
- Calculated % unionized [2]: 38.69%
- pH [3, 11]: 5.30

Source: US20240374524A1, “INCREASING PERMEATION FOR PRE-GASTRIC ABSORPTION OF ACTIVE PHARMACEUTICAL INGREDIENTS” (Catalent U.K. Swindon Zydis Limited, priority 2023, published 2024)
